In patent US4575498A, “Method for restoring depleted purine nucleotide pools” (priority 1983, dated 1986):
“Also recorded” adds a separate entry of the source.

What was measured:
[1] = molecular target: T1, adenylosuccinate lyase (cardiac muscle) (Mus musculus, UniProt P54822); experiment: Assay of adenylosuccinate lyase, cardiac enzyme; type: biochemical, C57BL/6J mice
T1 construct: the hearts and gastrocnemius muscles were excised, weighed, and homogenized to a slurry; from tissue; host or cells: heart of six-week-old C57BL/6J mice; dialyzed 10,000×g supernatant
T1 sequence (P54822 2-484 limits assumed): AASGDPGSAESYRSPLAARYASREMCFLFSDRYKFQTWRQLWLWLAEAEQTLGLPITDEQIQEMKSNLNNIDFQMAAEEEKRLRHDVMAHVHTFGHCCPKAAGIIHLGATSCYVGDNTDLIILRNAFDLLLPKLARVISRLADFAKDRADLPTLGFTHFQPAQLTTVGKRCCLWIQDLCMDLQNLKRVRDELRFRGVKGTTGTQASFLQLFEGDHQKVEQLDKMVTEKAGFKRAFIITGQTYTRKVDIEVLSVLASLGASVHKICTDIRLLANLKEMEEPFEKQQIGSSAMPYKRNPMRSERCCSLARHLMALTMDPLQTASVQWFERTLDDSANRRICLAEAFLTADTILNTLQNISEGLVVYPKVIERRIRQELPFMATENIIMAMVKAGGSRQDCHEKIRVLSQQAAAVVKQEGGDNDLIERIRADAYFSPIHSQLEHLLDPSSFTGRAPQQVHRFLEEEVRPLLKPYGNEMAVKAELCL
Description: (§1) Preparation and Assay of Adenylosuccinate Lyase--Six-week-old C57BL/6J mice were killed, and the hearts and gastrocnemius muscles were excised, weighed, and homogenized to a slurry in 4 volumes of 50 mM Tris-HCl, pH 7.4 at 25° C. containing 1 mM EDTA and 1 mM β-mercaptoethanol in a TenBroeck glass homogenizer. The homogenate was centrifuged at 10,000×g for 15 min and the supernatant was dialyzed against 1,000 volumes of the extraction buffer for 2 h at 4° C. The lyase activity was partially stabilized by the addition of EDTA and β-mercaptoethanol, but some activity was lost even on storage at -70° C.
(§2) The assays were carried out at pH 7.4 were reaction mixtures that contained 50 mM Tris-HCl buffer, 1 mM EDTA, 1 mM β-mercaptoethanol, 20 μM adenylosuccinate, and the enzyme extract (protein concentration, 0.13-0.20 mg/ml). The decrease in absorbance at 280 nm was measured using a Gilford recording spectrophotometer. All assays were done at 25° C. and were linear with respect to time of incubation and with the amount of protein in extract added to the assay.
(§3) These are average values for experiments with 4 separate enzyme preparations. The experimental points in the double reciprocal plots were fitted to the best line by the method of least squares with all points being weighted equally.

[2] = molecular target: T2, adenylosuccinate lyase (skeletal muscle) (Mus musculus, UniProt P54822); experiment: Assay of adenylosuccinate lyase, skeletal muscle enzyme; type: biochemical, C57BL/6J mice
T2 construct: the hearts and gastrocnemius muscles were excised, weighed, and homogenized to a slurry; from tissue; host or cells: gastrocnemius (skeletal) muscle of six-week-old C57BL/6J mice; dialyzed 10,000×g supernatant
T2 sequence (P54822 2-484 limits assumed): T1 sequence (P54822 2-484 limits assumed)
Description: as §1, §2, §3

cardiovascular system = details: prior art statement; cited from earlier work
[3] = substrate: O=C(O)C[C@H](Nc1ncnc2c1ncn2[C@@H]1O[C@H](COP(=O)(O)O)[C@@H](O)[C@H]1O)C(=O)O; experiment: Assay of adenylosuccinate lyase, cardiac enzyme; type: biochemical, C57BL/6J mice; details: other: cardiac muscle enzyme, pH 7.4, 25° C., 4 enzyme preparations
Description: as §1, §2, §3

[4] = substrate: O=C(O)C[C@H](Nc1ncnc2c1ncn2[C@@H]1O[C@H](COP(=O)(O)O)[C@@H](O)[C@H]1O)C(=O)O; experiment: Assay of adenylosuccinate lyase, skeletal muscle enzyme; type: biochemical, C57BL/6J mice; details: other: skeletal muscle enzyme, pH 7.4, 25° C., 4 enzyme preparations
Description: as §1, §2, §3

Question: What does the source list for NC(=O)c1ncn([C@@H]2O[C@H](COP(=O)(O)O)[C@@H](O)[C@H]2O)c1N [AICAR, 5-Amino-4-imidazolecarboxamide Ribotide]?
Answer: Ki [1]: 4.5 ± 1.7 µM; maximal AICAR concentration exceeding Ki of adenylosuccinate lyase ([1]; cardiac muscle): 180 fold; Ki [2]: 7.6 ± 3.2 µM; maximal AICAR concentration exceeding Ki of adenylosuccinate lyase ([2]; skeletal muscle): 18 fold

Question: For Nc1ncnc2c1ncn2[C@@H]1O[C@H](CO)[C@@H](O)[C@H]1O [adenosine], which hemodynamic effects (cardiovascular system) is on record?
Answer: profound changes in the hemodynamic status; also recorded: deleterious hemodynamic effects

Question: For O=c1[nH]cnc2nc[nH]c12 [hypoxanthine], which hemodynamic effects (cardiovascular system) is on record?
Answer: deleterious hemodynamic effects

Question: With OC[C@H]1O[C@@H](n2cnc3c(O)ncnc32)[C@H](O)[C@@H]1O [inosine] as the molecule, how does the hemodynamic effects (cardiovascular system) read?
Answer: deleterious hemodynamic effects

B1: adenylosuccinate lyase (cardiac muscle) (Mus musculus) (protein)
chain: T1 sequence (P54822 2-484 limits assumed)
notes: the hearts and gastrocnemius muscles were excised, weighed, and homogenized to a slurry; from tissue; host or cells: heart of six-week-old C57BL/6J mice; dialyzed 10,000×g supernatant
Question: For B1, which Km [3] is on record?
Answer: 2.2 ± 0.3 µM

B2: adenylosuccinate lyase (skeletal muscle) (Mus musculus) (protein)
chain: T1 sequence (P54822 2-484 limits assumed)
notes: the hearts and gastrocnemius muscles were excised, weighed, and homogenized to a slurry; from tissue; host or cells: gastrocnemius (skeletal) muscle of six-week-old C57BL/6J mice; dialyzed 10,000×g supernatant
Question: With B2 as the molecule, how does the Km [4] read?
Answer: 4.5 ± 1.5 µM
